Target: T1, human TGR5 (Homo sapiens, UniProt Q8TDU6)
T1 construct: expressed in transfected cells; host or cells: HEK293
T1 sequence (Q8TDU6 1-330): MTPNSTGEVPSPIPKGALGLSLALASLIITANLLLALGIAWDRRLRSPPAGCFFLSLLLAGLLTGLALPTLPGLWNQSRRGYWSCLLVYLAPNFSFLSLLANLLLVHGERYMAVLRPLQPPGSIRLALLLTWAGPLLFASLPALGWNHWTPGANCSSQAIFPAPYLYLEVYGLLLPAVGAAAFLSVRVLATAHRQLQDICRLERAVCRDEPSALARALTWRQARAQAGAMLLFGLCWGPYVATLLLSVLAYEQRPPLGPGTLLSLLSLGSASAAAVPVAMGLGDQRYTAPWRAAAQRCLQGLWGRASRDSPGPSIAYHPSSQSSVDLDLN
Assay: Cell-based TGR5 assay (cAMP generation, HTRF)
Details: HEK293 cells stably transfected with human TGR5; cAMP by HTRF; 30 minutes at 37° C.; read-out: pEC50 Human TGR5 (converted)
Summary of the method: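 First, compounds in 3-fold serial dilution were placed in HBSS with 10 mM HEPES pH 7.4 and 0.5 mM IBMX. Next, human TGR5-expressing HEK293 cells were added and incubated 30 min at 37° C. Finally, cAMP was detected by HTRF and pEC50 derived by logistic fitting.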

| Compound | EC50 [µM] |
| --- | --- |
| CC(CCCC(=O)N(C[C@@H](O)[C@H](O)[C@@H](O)[C@@H](O)CO)[C@H]1CC[C@@H](O)CC1)c1ccc(Cl)c(CNC2(c3cnccc3-c3ccccc3OC3CC3)CC2)c1 (stereo partly drawn) [Compound I-343, 5-{4-chloro-3-[({1-[4-(2-cyclopropoxyphenyl)pyridin-3-yl]cyclopropyl}amino)methyl]phenyl}-N-[(2R,3S,4S,5S)-2,3,4,5,6-pentahydroxyhexyl]-N-[(1s,4s)-4-hydroxycyclohexyl]hexanamide] | < 0.1 |
| Cc1ccc(C(C)CCCC(=O)N(CCCO)C[C@H](O)[C@@H](O)[C@H](O)[C@H](O)CO)cc1CNC1(c2cnccc2-c2ccccc2OC2CC2)CC1 (stereo partly drawn) [Compound I-358, 5-{3-[({1-[4-(2-cyclopropoxyphenyl)pyridin-3-yl]cyclopropyl}amino)methyl]-4-methylphenyl}-N-(3-hydroxypropyl)-N-[(2S,3R,4R,5R)-2,3,4,5,6-pentahydroxyhexyl]hexanamide] | 0.126 to 1 |
| Cc1cc(CNC2(c3cnccc3-c3ccccc3OC3CC3)CC2)c(C)cc1CCCCC(=O)N(C)C[C@H](O)[C@@H](O)[C@H](O)[C@H](O)CO [Compound I-149, 5-{4-[({1-[4-(2-cyclopropoxyphenyl)pyridin-3-yl]cyclopropyl}amino)methyl]-2,5-dimethylphenyl}-N-methyl-N-[(2S,3R,4R,5R)-2,3,4,5,6-pentahydroxyhexyl]pentanamide] | 0.126 to 1 |
| Fc1ccccc1-c1ccncc1C1(OCc2cc(Cl)ccc2Cl)CC1 [Compound I-50, 3-{1-[(2,5-dichlorophenyl)methoxy]cyclopropyl}-4-(2-fluorophenyl)pyridine] | 1.26 to 10 |
| CS(=O)(=O)NCCCCN(CCCCSc1ccc(Cl)c(CNC2(c3cnccc3-c3ccccc3OC3CC3)CC2)c1)C(=O)[C@@H](O)[C@@H](O)[C@H](O)[C@@H](O)CO [Compound I-582, (2S,3S,4R,5S)-N-[4-({4-chloro-3-[({1-[4-(2-cyclopropoxyphenyl)pyridin-3-yl]cyclopropyl}amino)methyl]phenyl}sulfanyl)butyl]-2,3,4,5,6-pentahydroxy-N-(4-methanesulfonamidobutyl) hexanamide] | < 0.1 |
| CC(CCCCN(C)C(=O)[C@@H](O)[C@@H](O)[C@H](O)[C@@H](O)CO)c1ccc(Cl)c(CNC2(c3cnccc3-c3ccccc3OC3CC3)CC2)c1 (stereo partly drawn) [Compound I-281, (2S,3S,4R,5S)-N-(5-{4-chloro-3-[({1-[4-(2-cyclopropoxyphenyl)pyridin-3-yl]cyclopropyl}amino)methyl]phenyl}hexyl)-2,3,4,5,6-pentahydroxy-N-methylhexanamide] | < 0.1 |
| CC(CCCC(=O)N1CCC(NC[C@H](O)[C@@H](O)[C@H](O)[C@H](O)C(=O)O)CC1)c1ccc(Cl)c(CNC2(c3cnccc3-c3ccccc3OC3CC3)CC2)c1 (stereo partly drawn) [Compound I-318, (2S,3S,4R,5S)-6-{[1-(5-{4-chloro-3-[({1-[4-(2-cyclopropoxyphenyl)pyridin-3-yl]cyclopropyl}amino)methyl]phenyl}hexanoyl)piperidin-4-yl]amino}-2,3,4,5-tetrahydroxyhexanoic acid] | < 0.1 |
| COCCN(CCCCNC(=O)N[C@@H](CO)[C@@H](O)[C@H](O)[C@H](O)CO)S(=O)(=O)c1ccc(Cl)c(COC2(c3cnccc3-c3ccccc3OC3CC3)CC2)c1 [Compound I-416, 1-{4-[N-(2-methoxyethyl)4-chloro-3-({1-[4-(2-cyclopropoxyphenyl)pyridin-3-yl]cyclopropoxy}methyl)benzenesulfonamido]butyl}-3-[(2S,3R,4S,5R)-1,3,4,5,6-pentahydroxyhexan-2-yl]urea] | < 0.1 |
| Cc1ccc(SCCCCN(CCCCO)C(=O)[C@@H](O)[C@@H](O)[C@H](O)[C@@H](O)CO)cc1COC1(c2cnccc2-c2ccccc2OC2CC2)CC1 [Compound I-541, (2S,3S,4R,5S)-N-(4-{[3-({1-[4-(2-cyclopropoxyphenyl)pyridin-3-yl]cyclopropoxy}methyl)-4-methylphenyl]sulfanyl}butyl)-2,3,4,5,6-pentahydroxy-N-(4-hydroxybutyl)hexanamide] | 0.126 to 1 |
| Fc1ccc(OC2CC2)c(-c2ccncc2C2(NCc3cc(Cl)ccc3Cl)CC2)c1 [Compound I-3, 1-[4-(2-cyclopropoxy-5-fluorophenyl)pyridin-3-yl]-N-[(2,5-dichlorophenyl)methyl]cyclopropan-1-amine] | < 0.1 |
| O=C([C@@H](O)[C@@H](O)[C@H](O)[C@@H](O)CO)N(CCCCO)CCCSc1ccc(Cl)c(CNC2(c3cnccc3-c3ccccc3OC3CC3)CC2)c1 [Compound I-527, (2S,3S,4R,5S)-N-[3-({4-chloro-3-[({1-[4-(2-cyclopropoxyphenyl)pyridin-3-yl]cyclopropyl}amino)methyl]phenyl}sulfanyl)propyl]-2,3,4,5,6-pentahydroxy-N-(4-hydroxybutyl)hexanamide] | < 0.1 |
| C[C@H](CCCC(=O)N(C)C[C@H](O)[C@@H](O)[C@H](O)[C@H](O)CO)c1ccc(Cl)c(CNC2(c3cnccc3-c3ccccc3OC3CC3)CC2)c1 (single isomer, unassigned) [Compound I-326] | < 0.1 |
| Cc1ccc(C(C)CCCN(CCS(C)(=O)=O)C(=O)[C@@H](O)[C@@H](O)[C@H](O)[C@@H](O)CO)cc1CNC1(c2cnccc2-c2ccccc2OC2CC2)CC1 (stereo partly drawn) [Compound I-305, (2S,3S,4R,5S)-N-(4-{3-[({1-[4-(2-cyclopropoxyphenyl)pyridin-3-yl]cyclopropyl}amino)methyl]-4-methylphenyl}pentyl)-2,3,4,5,6-pentahydroxy-N-(2-methanesulfonylethyl) hexanamide] | < 0.1 |
| CC(CCCC(=O)N[C@@H](CO)[C@@H](O)[C@H](O)[C@H](O)CO)c1ccc(Cl)c(CNC2(c3cnccc3-c3ccccc3OC3CC3)CC2)c1 (stereo partly drawn) [Compound I-313, 5-{4-chloro-3-[({1-[4-(2-cyclopropoxyphenyl)pyridin-3-yl]cyclopropyl}amino)methyl]phenyl}-N-[(2S,3R,4S,5R)-1,3,4,5,6-pentahydroxyhexan-2-yl]hexanamide] | < 0.1 |

Now from value to molecule:

| EC50 [µM] | Compound |
| --- | --- |
| < 0.1 | Cc1cc(COC2(c3cnccc3-c3ccccc3OC3CC3)CC2)c(Cl)cc1CCCCNC(=O)N[C@@H](C(=O)O)[C@@H](O)[C@H](O)[C@H](O)CO [Compound I-106, (2R,3R,4S,5R)-2-[({4-[5-chloro-4-({1-[4-(2-cyclopropoxyphenyl)pyridin-3-yl]cyclopropoxy}methyl)-2-methylphenyl]butyl}carbamoyl)amino]-3,4,5,6-tetrahydroxyhexanoic acid] |
| < 0.1 | O=C(CCCSc1ccc(Cl)c(COC2(c3cnccc3-c3ccccc3OC3CC3)CC2)c1)N(CCCO)C[C@H](O)[C@@H](O)[C@H](O)[C@H](O)CO [Compound I-661, 4-{[4-chloro-3-({1-[4-(2-cyclopropoxyphenyl)pyridin-3-yl]cyclopropoxy}methyl)phenyl]sulfanyl}-N-(3-hydroxypropyl)-N-[(2S,3R,4R,5R)-2,3,4,5,6-pentahydroxyhexyl]butanamide] |
| < 0.1 | CC(CCCc1cc(Cl)c(COC2(c3cnccc3-c3ccccc3OC3CC3)CC2)cc1Cl)C(=O)NC[C@H](O)[C@@H](O)[C@H](O)[C@H](O)CO (stereo partly drawn) [Compound I-139, 5-[2,5-dichloro-4-({1-[4-(2-cyclopropoxyphenyl)pyridin-3-yl]cyclopropoxy}methyl)phenyl]-2-methyl-N-[(2S,3R,4R,5R)-2,3,4,5,6-pentahydroxyhexyl]pentanamide] |
| < 0.1 | O=C(NCCCCc1cc(Cl)c(COC2(c3cnccc3-c3ccccc3OC3COC3)CC2)cc1Cl)NC[C@H](O)[C@@H](O)[C@H](O)[C@H](O)CO [Compound I-193, 1-(4-{2,5-dichloro-4-[(1-{4-[2-(oxetan-3-yloxy)phenyl]pyridin-3-yl}cyclopropoxy)methyl]phenyl}butyl)-3-[(2S,3R,4R,5R)-2,3,4,5,6-pentahydroxyhexyl]urea] |
| < 0.1 | CN(C[C@H](O)[C@@H](O)[C@H](O)[C@H](O)CO)C(=O)CC1(CSc2ccc(Cl)c(COC3(c4cnccc4-c4ccccc4OC4CC4)CC3)c2)CC1 [Compound I-679, 2-[1-({[4-chloro-3-({1-[4-(2-cyclopropoxyphenyl)pyridin-3-yl]cyclopropoxy}methyl)phenyl]sulfanyl}methyl)cyclopropyl]-N-methyl-N-[(2S,3R,4R,5R)-2,3,4,5,6-pentahydroxyhexyl]acetamide] |
| 0.126 to 1 | Cc1cc(COC2(c3cnccc3-c3ccccc3OC3CC3)CC2)c(Cl)cc1CCCCN(CCO)C(=O)NC[C@H](O)[C@@H](O)[C@H](O)[C@H](O)CO [Compound I-97, 1-(4-(5-chloro-4-((1-(4-(2-cyclopropoxyphenyl)pyridin-3-yl)cyclopropoxy)methyl)-2-methylphenyl)butyl)-1-(2-hydroxyethyl)-3-((2S,3R,4R,5R)-2,3,4,5,6-pentahydroxyhexyl)urea] |
| < 0.1 | CC(=O)N(CCCSc1ccc(Cl)c(COC2(c3cnccc3-c3ccccc3OC3CC3)CC2)c1)C[C@H](O)[C@@H](O)[C@H](O)[C@H](O)CO [Compound I-500, N-(3-{[4-chloro-3-({1-[4-(2-cyclopropoxyphenyl)pyridin-3-yl]cyclopropoxy}methyl)phenyl]sulfanyl}propyl)-N-[(2S,3R,4R,5R)-2,3,4,5,6-pentahydroxyhexyl]acetamide] |
| < 0.1 | CN(CCCCNC(=O)NC[C@H](O)[C@@H](O)[C@H](O)[C@H](O)CO)S(=O)(=O)c1ccc(Cl)c(COC2(c3cnccc3-c3ccccc3OC3COC3)CC2)c1 [Compound I-464, 1-(4-{N-methyl4-chloro-3-[(1-{4-[2-(oxetan-3-yloxy)phenyl]pyridin-3-yl}cyclopropoxy)methyl]benzenesulfonamido}butyl)-3-[(2S,3R,4R,5R)-2,3,4,5,6-pentahydroxyhexyl]urea] |

— patent publication US12084472B2 (Ardelyx, Inc., priority 2015, dated 2024)
